# From US11548900B2, “Oxazino-quinazoline and oxazino-quinoline type compound, preparation method and uses thereof” (BEIJING SCITECH-MQ PHARMACEUTICALS LIMITED, priority 2018, dated 2023)
# Biological target: HER2 kinase (Homo sapiens (Human), UniProt P04626)
# Assay: Inhibition of HER2 kinase activity (ULight-labeled PolyGT substrate)
# Assay type: biochemical
# Details: HER2 kinase 10 nM, ATP 10 μM, 2 hours
# Method: The assay for the inhibition of EGFR and HER2 kinase activity by small molecular compounds was carried out using the method as follows:
# 1) Dilution of the compounds
# In a 96-well plate a, the compounds were diluted with DMSO using a 3-fold gradient dilution to form 11 concentrations, the 12th concentration is pure DMSO (as a positive control); and in a new 96-well plate b the above solutions were diluted 25 times with ultrapure water (DMSO concentration is 4%).
# 2) Transferring the compounds to 384-well plate
# The compound solutions diluted with ultrapure water in the 96-well plate b above was transferred to the corresponding wells of a 384-well plate in duplicate.
# 3) Addition of 4×kinase solution: 2.5 μl of the above 4× kinase solution was taken using multichannel pipette and added to the corresponding reaction wells of the 384-well plate, mixed well and pre-reacted at room temperature for 5 minutes.
# 4) Addition of 2×substrate/ATP mixed solution: 5 μl of the above 2×substrate/ATP mixed solution was taken using multichannel pipette and added to the corresponding reaction wells of the 384-well plate.
# 5) Negative control: negative control wells were set in the 384-well plate, and 2.5 μl 4×substrate, 2.5 μl 4×enzyme solution, 2.5 μl 1×Kinase Assay Buffer and 2.5 μl ultrapure water containing 4% DMSO were added to each well.
# 6) Mixed by centrifugation and kept at room temperature for 2 hours in the dark.
# 7) Termination of the enzymatic reaction:
# 5 μl of the above 4× stop solution was pipetted to the corresponding wells of the 384-well plate, centrifuged and mixed, and reacted at room temperature for 5 minutes.
# 5 μl of the above 4× detection solution was pipetted into the corresponding wells of the 384-well plate, centrifuged and mixed, and reacted at room temperature for 1 hour.
# 9) The 384-well plate was placed into a microplate reader and the signal was detected using the corresponding program.
# 10) IC50 analysis: Well reading value=10000*EU665 value/EU615 value Inhibition rate=(reading value of positive control well−reading value of experimental well)/(reading value of positive control well−reading value of negative control well)*100% Corresponding IC50s can be calculated by entering the drug concentrations and the corresponding inhibition rates into GraphPad Prism 5.
# Conditions of experiment for screening HER2 kinase inhibitory molecules:
# The final concentration of HER2 kinase in the reaction system is 10 nM, the final concentration of ATP is 10 μM, the final concentration of substrate ULight™-labeled PolyGT is 100 nM, and the enzymatic reaction time is 2 hours.
# The maximum final concentration of the compound in the reaction system is 2.5 μM, 11 concentrations were made with a 3-fold gradient dilution, and the minimal final concentration is 0.042 nM. The final concentration of DMSO is 1%.
# Chain of HER2 kinase (P04626 23-1255): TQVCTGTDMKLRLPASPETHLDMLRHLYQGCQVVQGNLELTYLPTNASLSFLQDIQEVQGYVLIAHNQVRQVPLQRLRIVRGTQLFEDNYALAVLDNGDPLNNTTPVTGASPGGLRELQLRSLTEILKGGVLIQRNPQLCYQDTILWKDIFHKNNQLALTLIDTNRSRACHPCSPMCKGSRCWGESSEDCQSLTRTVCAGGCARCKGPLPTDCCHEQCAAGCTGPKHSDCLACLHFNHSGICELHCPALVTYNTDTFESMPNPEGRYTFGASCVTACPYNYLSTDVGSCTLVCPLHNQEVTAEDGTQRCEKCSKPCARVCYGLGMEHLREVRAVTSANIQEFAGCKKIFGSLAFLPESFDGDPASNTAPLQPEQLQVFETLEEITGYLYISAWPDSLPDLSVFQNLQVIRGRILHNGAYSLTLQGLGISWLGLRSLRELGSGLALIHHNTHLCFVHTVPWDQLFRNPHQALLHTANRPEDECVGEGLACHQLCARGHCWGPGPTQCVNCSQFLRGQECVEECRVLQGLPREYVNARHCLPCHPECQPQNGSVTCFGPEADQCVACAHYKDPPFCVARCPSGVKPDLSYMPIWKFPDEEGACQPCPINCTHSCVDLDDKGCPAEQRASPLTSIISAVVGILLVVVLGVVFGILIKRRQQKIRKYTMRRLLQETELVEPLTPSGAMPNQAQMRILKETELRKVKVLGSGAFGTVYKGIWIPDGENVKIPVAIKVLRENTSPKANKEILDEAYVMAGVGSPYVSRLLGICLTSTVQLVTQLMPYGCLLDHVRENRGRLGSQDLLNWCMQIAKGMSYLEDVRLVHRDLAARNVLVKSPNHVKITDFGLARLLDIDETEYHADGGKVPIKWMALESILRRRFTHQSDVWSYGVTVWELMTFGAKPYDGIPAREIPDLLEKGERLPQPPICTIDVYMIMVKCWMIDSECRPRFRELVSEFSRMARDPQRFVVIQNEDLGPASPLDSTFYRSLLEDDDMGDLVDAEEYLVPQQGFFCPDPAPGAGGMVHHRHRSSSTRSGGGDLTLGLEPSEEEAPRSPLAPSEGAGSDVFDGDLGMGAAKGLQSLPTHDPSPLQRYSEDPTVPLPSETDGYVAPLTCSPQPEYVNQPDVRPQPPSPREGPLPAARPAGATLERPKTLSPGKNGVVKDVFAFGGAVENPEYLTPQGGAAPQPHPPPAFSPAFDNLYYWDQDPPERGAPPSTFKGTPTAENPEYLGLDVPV
row,Compound,IC50
1,"C=CC(=O)N1CCOc2c1ccc1ncnc(Nc3ccc(Oc4cccc(C(F)(F)F)c4)cc3)c21 [Example 1, 1-(10-((4-(3-(trifluoromethyl)phenoxy)phenyl)amino)-2,3-dihydro-4H-[1,4]oxazino[2,3-f]quinazolin-4-yl)prop-2-en-1-one]",≤ 50 nM
2,"C=CC(=O)N1CCOc2c1ccc1ncnc(Nc3ccc(Oc4cccc(C)c4)cc3)c21 [Example 5, 1-(10-((4-(m-tolyloxy)phenyl)amino)-2,3-dihydro-4H-[1,4]oxazino[2,3-f]quinazolin-4-yl)prop-2-en-1-one]",≤ 50 nM
3,"C=CC(=O)N1CCOc2c1ccc1ncnc(Nc3ccc(Oc4cccc(Cl)c4)cc3)c21 [Example 6, 1-(10-((4-(3-chlorophenoxy)phenyl)amino)-2,3-dihydro-4H-[1,4]oxazino[2,3-f]quinazolin-4-yl)prop-2-en-1-one]",≤ 50 nM
4,"C=CC(=O)N1CCOc2c1ccc1ncnc(Nc3ccc(Oc4cccc(F)c4)cc3)c21 [Example 7, 1-(10-((4-(3-fluorophenoxy)phenyl)amino)-2,3-dihydro-4H-[1,4]oxazino[2,3-f]quinazolin-4-yl)prop-2-en-1-one]",≤ 50 nM
5,"C=CC(=O)N1CCOc2c1ccc1ncnc(Nc3ccc(Oc4ccccc4F)cc3)c21 [Example 8, 1-(10-((4-(2-fluorophenoxy)phenyl)amino)-2,3-dihydro-4H-[1,4]oxazino[2,3-f]quinazolin-4-yl)prop-2-en-1-one]",≤ 50 nM
6,"C=CC(=O)N1CCOc2c1ccc1ncnc(Nc3ccc(Oc4ccc(F)cc4)cc3)c21 [Example 9, 1-(10-((4-(4-fluorophenoxy)phenyl)amino)-2,3-dihydro-4H-[1,4]oxazino[2,3-f]quinazolin-4-yl)prop-2-en-1-one]",≤ 50 nM
7,"C=CC(=O)N1CCOc2c1ccc1ncnc(Nc3ccc(Oc4ccc(Cl)cc4)cc3)c21 [Example 10, 1-(10-((4-(4-chlorophenoxy)phenyl)amino)-2,3-dihydro-4H-[1,4]oxazino[2,3-f]quinazolin-4-yl)prop-2-en-1-one]",≤ 50 nM
8,"C=CC(=O)N1CCOc2c1ccc1ncnc(Nc3ccc(Oc4ccccc4OC)cc3)c21 [Example 11, 1-(10-((4-(2-methoxyphenoxy)phenyl)amino)-2,3-dihydro-4H-[1,4]oxazino[2,3-f]quinazolin-4-yl)prop-2-en-1-one]",≤ 50 nM
9,"C=CC(=O)N1CCOc2c1ccc1ncnc(Nc3ccc(Oc4ccccn4)cc3)c21 [Example 12, 1-(10-((4-(pyridin-2-yloxy)phenyl)amino)-2,3-dihydro-4H-[1,4]oxazino[2,3-f]quinazolin-4-yl)prop-2-en-1-one]",≤ 50 nM
10,"C=CC(=O)N1CCOc2c1ccc1ncnc(Nc3ccc(Oc4cccnc4)cc3)c21 [Example 13, 1-(10-((4-(pyridin-3-yloxy)phenyl)amino)-2,3-dihydro-4H-[1,4]oxazino[2,3-f]quinazolin-4-yl)prop-2-en-1-one]",≤ 50 nM
11,"C=CC(=O)N1CCOc2c1ccc1ncnc(Nc3ccc(Oc4cccc(OC)c4)cc3)c21 [Example 14, 1-(10-((4-(3-methoxyphenoxy)phenyl)amino)-2,3-dihydro-4H-[1,4]oxazino[2,3-f]quinazolin-4-yl)prop-2-en-1-one]",≤ 50 nM
12,"C=CC(=O)N1CCOc2c1ccc1ncnc(Nc3ccc(Oc4nccs4)cc3)c21 [Example 15, 1-(10-((4-(thiazol-2-yloxy)phenyl)amino)-2,3-dihydro-4H-[1,4]oxazino[2,3-f]quinazolin-4-yl)prop-2-en-1-one]",≤ 50 nM
13,"C=CC(=O)N1CCOc2c1ccc1ncnc(Nc3ccc(Oc4ccccc4)c(F)c3)c21 [Example 16, 1-(10-((3-fluoro-4-phenoxyphenyl)amino)-2,3-dihydro-4H-[1,4]oxazino[2,3-f]quinazolin-4-yl)prop-2-en-1-one]",≤ 50 nM
14,"C=CC(=O)N1CCOc2c1ccc1ncnc(Nc3ccc(Oc4ccccc4)c(Cl)c3)c21 [Example 17, 1-(10-((3-chloro-4-phenoxyphenyl)amino)-2,3-dihydro-4H-[1,4]oxazino[2,3-f]quinazolin-4-yl)prop-2-en-1-one]",≤ 50 nM
15,"C=CC(=O)N1CCOc2c1ccc1ncnc(Nc3ccc(OCc4ccc(F)cc4)cc3)c21 [Example 18, 1-(10-((4-((4-fluorobenzyl)oxy)phenyl)amino)-2,3-dihydro-4H-[1,4]oxazino[2,3-f]quinazolin-4-yl)prop-2-en-1-one]",≤ 50 nM
16,"C=CC(=O)N1CCOc2c1ccc1ncnc(Nc3ccc(OCc4cccc(F)c4)cc3)c21 [Example 19, 1-(10-((4-((3-fluorobenzyl)oxy)phenyl)amino)-2,3-dihydro-4H-[1,4]oxazino[2,3-f]quinazolin-4-yl)prop-2-en-1-one]",≤ 50 nM
17,"C=CC(=O)N1CCOc2c1ccc1ncnc(Nc3ccc(OCc4cccc(C(F)(F)F)c4)cc3)c21 [Example 20, 1-(10-((4-((3-trifluoromethylbenzyl)oxy)phenyl)amino)-2,3-dihydro-4H-[1,4]oxazino[2,3-f]quinazolin-4-yl)prop-2-en-1-one]",≤ 50 nM
18,"C=CC(=O)N1CCOc2c1ccc1ncnc(Nc3ccc(OCc4ccccn4)cc3)c21 [Example 21, 1-(10-((4-(pyridin-2-ylmethoxy)phenyl)amino)-2,3-dihydro-4H-[1,4]oxazino[2,3-f]quinazolin-4-yl)prop-2-en-1-one]",≤ 50 nM
19,"C=CC(=O)N1CCOc2c1ccc1ncnc(Nc3ccc(OCc4cccs4)cc3)c21 [Example 22, 1-(10-((4-(thiophen-2-ylmethoxy)phenyl)amino)-2,3-dihydro-4H-[1,4]oxazino[2,3-f]quinazolin-4-yl)prop-2-en-1-one]",≤ 50 nM
20,"C=CC(=O)N1CCOc2c1ccc1ncnc(Nc3ccc(OCc4nccs4)cc3)c21 [Example 23, 1-(10-((4-(thiazol-2-ylmethoxy)phenyl)amino)-2,3-dihydro-4H-[1,4]oxazino[2,3-f]quinazolin-4-yl)prop-2-en-1-one]",≤ 50 nM
21,"C=CC(=O)N1CCOc2c1ccc1ncnc(Nc3ccc(SCc4ccccc4)cc3)c21 [Example 24, 1-(10-((4-(benzylthio)phenyl)amino)-2,3-dihydro-4H-[1,4]oxazino[2,3-f]quinazolin-4-yl)prop-2-en-1-one]",≤ 50 nM
22,"C=CC(=O)N1CCOc2c1ccc1ncnc(Nc3ccc(OCc4cccc(F)c4)c(C(F)(F)F)c3)c21 [Example 25, 1-(10-((4-((3-fluorobenzyl)oxy)-3-(trifluoromethyl)phenyl)amino)-2,3-dihydro-4H-[1,4]oxazino[2,3-f]quinazolin-4-yl)prop-2-en-1-one]",≤ 50 nM
23,"C=CC(=O)N1CCOc2c1ccc1ncnc(Nc3ccc(OCc4cccc(F)c4)c(OC)c3)c21 [Example 26, 1-(10-((4-((3-fluorobenzyl)oxy)-3-(methoxy)phenyl)amino)-2,3-dihydro-4H-[1,4]oxazino[2,3-f]quinazolin-4-yl)prop-2-en-1-one]",≤ 50 nM
24,"C=CC(=O)N1CCOc2c1ccc1ncnc(Nc3ccc(OCc4cccc(F)c4)c(F)c3)c21 [Example 27, 1-(10-((4-((3-fluorobenzyl)oxy)-3-fluorophenyl)amino)-2,3-dihydro-4H-[1,4]oxazino[2,3-f]quinazolin-4-yl)prop-2-en-1-one]",≤ 50 nM
25,"C=CC(=O)N1CCOc2c1ccc1ncnc(Nc3ccc(Sc4ccc(F)cc4)cc3)c21 [Example 28, 1-(10-((4-((4-fluorophenyl)thio)phenyl)amino)-2,3-dihydro-4H-[1,4]oxazino[2,3-f]quinazolin-4-yl)prop-2-en-1-one]",≤ 50 nM
26,"C=CC(=O)N1CCOc2c1ccc1ncnc(Nc3ccc(Oc4ccccc4)cc3F)c21 [Example 29, 1-(10-((2-fluoro-4-phenoxyphenyl)amino)-2,3-dihydro-4H-[1,4]oxazino[2,3-f]quinazolin-4-yl)prop-2-en-1-one]",≤ 50 nM
27,"C=CC(=O)N1CCOc2c1ccc1ncnc(Nc3ccc(Oc4ccccc4OCCN(C)C)cc3)c21 [Example 30, 1-(10-((4-(2-(2-(dimethylamino)ethoxy)phenoxy)phenyl)amino)-2,3-dihydro-4H-[1,4]oxazino[2,3-f]quinazolin-4-yl)prop-2-en-1-one]",≤ 50 nM
28,"C=CC(=O)N1CCOc2c1ccc1ncnc(Nc3ccc(Oc4ccccc4OCCCN(C)C)cc3)c21 [Example 31, 1-(10-((4-(2-(3-(dimethylamino)propoxy)phenoxy)phenyl)amino)-2,3-dihydro-4H-[1,4]oxazino[2,3-f]quinazolin-4-yl)prop-2-en-1-one]",50 to 500 nM
29,"C=CC(=O)N1CCOc2c1ccc1ncnc(Nc3ccc(Oc4ccccc4OCCOC)cc3)c21 [Example 32, 1-(10-((4-(2-(2-methoxyethoxy)phenoxy)phenyl)amino)-2,3-dihydro-4H-[1,4]oxazino[2,3-f]quinazolin-4-yl)prop-2-en-1-one]",≤ 50 nM
